Values belong to the molecule of their own block, whether it stands above or below them.
Tests used:
[1] = target: T1, rSmLDH (SmLDH1, lactate dehydrogenase) (Spirometra erinaceieuropaei, UniProt E3SW74); experiment: LDH activity at […] nm, Lineweaver-Burk Ki (lactate oxidation; reduction Ki […], IC50 […]); assay type: biochemical
T1 construct: gene LDH; recombinant SmLDH1 (GenBank ADK62519.1, 338 aa), pQE-80L, E. coli BL21
T1 sequence (E3SW74 1-338): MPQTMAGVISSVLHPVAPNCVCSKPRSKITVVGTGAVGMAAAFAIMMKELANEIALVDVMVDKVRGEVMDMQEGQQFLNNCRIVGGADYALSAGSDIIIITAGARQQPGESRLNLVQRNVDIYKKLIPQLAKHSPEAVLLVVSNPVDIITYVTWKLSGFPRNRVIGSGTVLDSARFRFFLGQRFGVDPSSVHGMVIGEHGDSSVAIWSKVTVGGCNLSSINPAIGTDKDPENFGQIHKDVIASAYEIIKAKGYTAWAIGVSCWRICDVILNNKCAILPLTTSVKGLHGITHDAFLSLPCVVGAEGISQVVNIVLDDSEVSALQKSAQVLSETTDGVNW

[2] = target: T1, rSmLDH (SmLDH1, lactate dehydrogenase); experiment: LDH activity at […] nm, Lineweaver-Burk Ki (lactate oxidation; reduction Ki […]); assay type: biochemical
[3] = target: T1, rSmLDH (SmLDH1, lactate dehydrogenase); experiment: LDH activity at […] nm, Lineweaver-Burk Ki (pyruvate reduction; oxidation Ki […]); assay type: biochemical
[4] = target: T1, rSmLDH (SmLDH1, lactate dehydrogenase); experiment: LDH activity at […] nm, Lineweaver-Burk Ki (lactate oxidation; reduction Ki […]); assay type: biochemical; remark: listed apart in the source
[5] = substrate: CC(=O)C(=O)O; experiment: enzyme kinetics, Km by Lineweaver-Burk plot; assay type: biochemical, Spirometra erinaceieuropaei; settings: NADH key catalytic sites […] R, […] D and […] H (model)
[6] = substrate: CC(O)C(=O)O; experiment: enzyme kinetics, Km by Lineweaver-Burk plot; assay type: biochemical, Spirometra erinaceieuropaei; settings: NAD+
[7] = substrate: NC(=O)C1=CN([C@@H]2O[C@H](COP(=O)(O)OP(=O)(O)OC[C@H]3O[C@@H](n4cnc5c(N)ncnc54)[C@H](O)[C@@H]3O)[C@@H](O)[C@H]2O)C=CC1; experiment: enzyme kinetics, Km by Lineweaver-Burk plot; assay type: biochemical, Spirometra erinaceieuropaei; settings: varied: cofactor
[8] = substrate: NC(=O)c1ccc[n+]([C@@H]2O[C@H](COP(=O)([O-])OP(=O)(O)OC[C@H]3O[C@@H](n4cnc5c(N)ncnc54)[C@H](O)[C@@H]3O)[C@@H](O)[C@H]2O)c1; experiment: enzyme kinetics, Km by Lineweaver-Burk plot; assay type: biochemical, Spirometra erinaceieuropaei; settings: varied: cofactor

Molecule: Cc1cc2c(C(C)C)c(O)c(O)c(C=O)c2c(O)c1-c1c(C)cc2c(C(C)C)c(O)c(O)c(C=O)c2c1O [Gsp, Gossypol]
- Ki [1]: 41.7 µM

Molecule: O=C(O)c1cccnc1 [Niacin, Nicotinic Acid]
- Ki [2]: 2090 µM

- Ki [3]: 89.4 µM
Molecule: NC(=S)c1cccnc1 [Thio, Thionicotinamide]

- Ki [4]: 47.1 µM
Molecule: O=C(O)C(=O)O [Oxalate]

B1: rSmLDH (SmLDH1, lactate dehydrogenase) (Spirometra erinaceieuropaei) (protein)
chain: MPQTMAGVISSVLHPVAPNCVCSKPRSKITVVGTGAVGMAAAFAIMMKELANEIALVDVMVDKVRGEVMDMQEGQQFLNNCRIVGGADYALSAGSDIIIITAGARQQPGESRLNLVQRNVDIYKKLIPQLAKHSPEAVLLVVSNPVDIITYVTWKLSGFPRNRVIGSGTVLDSARFRFFLGQRFGVDPSSVHGMVIGEHGDSSVAIWSKVTVGGCNLSSINPAIGTDKDPENFGQIHKDVIASAYEIIKAKGYTAWAIGVSCWRICDVILNNKCAILPLTTSVKGLHGITHDAFLSLPCVVGAEGISQVVNIVLDDSEVSALQKSAQVLSETTDGVNW
notes: recombinant SmLDH1 (GenBank ADK62519.1, 338 aa), pQE-80L, E. coli BL21
- Km [5]: 4430 µM
- Km [6]: 75190 µM
- Km [7]: 490 µM
- Km [8]: 480 µM

— PMC10705530, “Lactate Dehydrogenase Gene Family in Spirometra mansoni (Cestoda: Diphyllobothriidea)—Phylogenetic Patterns and Molecular Characteristics” (Animals : an Open Access Journal from MDPI, 2023)
